SMILES strings stand for the structures.

System in one data set: not given
Assay: not given
By melting point is commonly meant the temperature of the solid-liquid transition. `Nc1nc(Nc2ccc(OC(F)F)cc2)nc(-n2c(C3CC3)nc3c(F)cc(F)cc32)n1` [Cpd 89, 6-(2-cyclopropyl-4,6-difluoro-1H-benzimidazol-1-yl)-N-[4-(difluoromethoxy)phenyl]-1,3,5-triazine-2,4-diamine] gave a melting point of 181 to 183 °C.

`Nc1nc(Nc2ccc(OC(F)F)c(F)c2)nc(-n2c(C3CC3)nc3c(F)cc(F)cc32)n1` [Cpd 90, 6-(2-cyclopropyl-4,6-difluoro-1H-benzimidazol-1-yl)-N-[4-(difluoromethoxy)-3-fluorophenyl]-1,3,5-triazine-2,4-diamine] showed a melting point of 196 to 198 °C.

`Nc1nc(Nc2ccc(OC(F)F)nc2)nc(-n2c(C3CC3)nc3c(F)cc(F)cc32)n1` [Cpd 91, 6-(2-cyclopropyl-4,6-difluoro-1H-benzimidazol-1-yl)-N-[6-(difluoromethoxy)pyridin-3-yl]-1,3,5-triazine-2,4-diamine] returned a melting point of 128 to 130 °C.

In a further data set the test system is Bmi-1 protein. Description: Sandwich ELISA Assay: Bmi-1 protein level in HT-1080 cells treated with test compounds. It counts as cell-based. The procedure, abridged:
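HT-1080 cells exposed to compounds (final DMSO 0.5%) for 40-48 h at 37° C, 5% CO2, then lysed. Bmi-1 quantified by sandwich ELISA (mouse anti-Bmi-1 capture, rabbit anti-Bmi-1 detection, HRP anti-rabbit, TMB), read at OD450 with OD570 reference, against recombinant GST-Bmi-1 standard curve (0-8000 pg/mL).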
(An ELISA detects its analyte on a solid surface through an enzyme-linked reagent.)
As usually defined, the EC50 is the concentration needed to bring the measured effect to its halfway point. A low value points to greater potency. Take `Nc1nc(Nc2ccc(OC(F)F)cc2)nc(-n2c(C3CC3)nc3c(F)cc(F)cc32)n1` [Cpd 89, 6-(2-cyclopropyl-4,6-difluoro-1H-benzimidazol-1-yl)-N-[4-(difluoromethoxy)phenyl]-1,3,5-triazine-2,4-diamine]: the EC50 was in the range of 10 to 100 nM.

Turning to `Nc1nc(Nc2ccc(OC(F)F)c(F)c2)nc(-n2c(C3CC3)nc3c(F)cc(F)cc32)n1` [Cpd 90, 6-(2-cyclopropyl-4,6-difluoro-1H-benzimidazol-1-yl)-N-[4-(difluoromethoxy)-3-fluorophenyl]-1,3,5-triazine-2,4-diamine], the EC50 lay within 10 to 100 nM.

In turn, `Nc1nc(Nc2ccc(OC(F)F)nc2)nc(-n2c(C3CC3)nc3c(F)cc(F)cc32)n1` [Cpd 91, 6-(2-cyclopropyl-4,6-difluoro-1H-benzimidazol-1-yl)-N-[6-(difluoromethoxy)pyridin-3-yl]-1,3,5-triazine-2,4-diamine] showed an EC50 of 10 to 100 nM.

`COc1ccc(Nc2nc(N)nc(-n3c(C)nc4cc(F)c(F)cc43)n2)cc1` [Cpd 194, 6-(5,6-difluoro-2-methyl-1H-benzimidazol-1-yl)-N-(4-methoxyphenyl)-1,3,5-triazine-2,4-diamine]: the EC50 fell in the range of 1 to 10 nM.

Consider `Cc1ccc(Nc2nc(N)nc(-n3c(C)nc4cc(F)c(F)cc43)n2)cc1` [Cpd 195, 6-(5,6-difluoro-2-methyl-1H-benzimidazol-1-yl)-N-(4-methylphenyl)-1,3,5-triazine-2,4-diamine], for which the EC50 lay in the range of 10 to 100 nM.

In turn, `Cc1nc2cc(F)c(F)cc2n1-c1nc(N)nc(Nc2ccc(Cl)cc2)n1` [Cpd 196, N-(4-chlorophenyl)-6-(5,6-difluoro-2-methyl-1H-benzimidazol-1-yl)-1,3,5-triazine-2,4-diamine] showed a concentration giving a half-maximal response (EC50) of 100 to 3000 nM.

In turn, `Cc1nc2ccccc2n1-c1nc(N)nc(Nc2ccc(Cl)c(F)c2)n1` [Cpd 197, N-(4-chloro-3-fluorophenyl)-6-(2-methyl-1H-benzimidazol-1-yl)-1,3,5-triazine-2,4-diamine] had an EC50 of 100 to 3000 nM.

Take `CCc1nc2ccccc2n1-c1nc(N)nc(Nc2ccc(Cl)c(F)c2)n1` [Cpd 198, N-(4-chloro-3-fluorophenyl)-6-(2-ethyl-1H-benzimidazol-1-yl)-1,3,5-triazine-2,4-diamine]: the EC50 lay in the range of 10 to 100 nM.

Compound `Cc1nc2c(F)cc(F)cc2n1-c1nc(N)nc(Nc2ccc(Cl)c(F)c2)n1` [Cpd 199, N-(4-chloro-3-fluorophenyl)-6-(4,6-difluoro-2-methyl-1H-benzimidazol-1-yl)-1,3,5-triazine-2,4-diamine] yielded an EC50 of 100 to 3000 nM.

For `CCc1nc2c(F)cc(F)cc2n1-c1nc(N)nc(Nc2ccc(Cl)c(F)c2)n1` [Cpd 200, N-(4-chloro-3-fluorophenyl)-6-(2-ethyl-4,6-difluoro-1H-benzimidazol-1-yl)-1,3,5-triazine-2,4-diamine], the EC50 is 100 to 3000 nM.

Compound `Cc1nc2ccc(F)cc2n1-c1nc(N)nc(Nc2ccc(Cl)c(F)c2)n1` [Cpd 201, N-(4-chloro-3-fluorophenyl)-6-(6-fluoro-2-methyl-1H-benzimidazol-1-yl)-1,3,5-triazine-2,4-diamine] registered a concentration for a half-maximal effect (EC50) of 100 to 3000 nM.

The compound `Cc1nc2ccccc2n1-c1cnnc(Nc2ccc(OC(F)F)cc2)n1` [Cpd 202, N-[4-(difluoromethoxy)phenyl]-5-(2-methyl-1H-benzimidazol-1-yl)-1,2,4-triazin-3-amine] came in with an EC50 of 100 to 3000 nM.

Compound `CCc1nc2ccccc2n1-c1cnnc(Nc2ccc(OC(F)F)cc2)n1` [Cpd 203, N-[4-(difluoromethoxy)phenyl]-5-(2-ethyl-1H-benzimidazol-1-yl)-1,2,4-triazin-3-amine] returned an EC50 of 10 to 100 nM.

Compound `COc1ccc(Nc2nncc(-n3c(C)nc4ccccc43)n2)cc1` [Cpd 204, N-(4-methoxyphenyl)-5-(2-methyl-1H-benzimidazol-1-yl)-1,2,4-triazin-3-amine] registered an EC50 of 1 to 10 nM.

Turning to `CCc1nc2ccccc2n1-c1cnnc(Nc2ccc(OC)cc2)n1` [Cpd 205, 5-(2-ethyl-1H-benzimidazol-1-yl)-N-(4-methoxyphenyl)-1,2,4-triazin-3-amine], the EC50 is 1 to 10 nM.

The compound `Cc1nc2ccccc2n1-c1nc(N)nc(Nc2ccc(Br)cc2)n1` [Cpd 206, N-(4-bromophenyl)-6-(2-methyl-1H-benzimidazol-1-yl)-1,3,5-triazine-2,4-diamine] had an EC50 of 1 to 10 nM.

For the compound `CCc1nc2ccccc2n1-c1nc(N)nc(Nc2ccc(Br)cc2)n1` [Cpd 207, N-(4-bromophenyl)-6-(2-ethyl-1H-benzimidazol-1-yl)-1,3,5-triazine-2,4-diamine], the EC50 was 1 to 10 nM.

In turn, `Cc1nc2c(F)cc(F)cc2n1-c1nc(N)nc(Nc2ccc(Br)cc2)n1` [Cpd 208, N-(4-bromophenyl)-6-(4,6-difluoro-2-methyl-1H-benzimidazol-1-yl)-1,3,5-triazine-2,4-diamine] displayed an EC50 of 10 to 100 nM.

`CCc1nc2c(F)cc(F)cc2n1-c1nc(N)nc(Nc2ccc(Br)cc2)n1` [Cpd 209, N-(4-bromophenyl)-6-(2-ethyl-4,6-difluoro-1H-benzimidazol-1-yl)-1,3,5-triazine-2,4-diamine]: the EC50 fell in the range of 1 to 10 nM.

For `Cc1nc2cc(F)c(F)cc2n1-c1nc(N)nc(Nc2ccc(Br)cc2)n1` [Cpd 210, N-(4-bromophenyl)-6-(5,6-difluoro-2-methyl-1H-benzimidazol-1-yl)-1,3,5-triazine-2,4-diamine], the EC50 was in the range of 10 to 100 nM.

For the compound `Cc1nc2ccc(F)cc2n1-c1nc(N)nc(Nc2ccc(Br)cc2)n1` [Cpd 211, N-(4-bromophenyl)-6-(6-fluoro-2-methyl-1H-benzimidazol-1-yl)-1,3,5-triazine-2,4-diamine], the EC50 lay in the range of 10 to 100 nM.

In the case of `CCc1nc2c(F)cccc2n1-c1nc(N)nc(Nc2ccc(OC)cc2)n1` [Cpd 212, 6-(2-ethyl-4-fluoro-1H-benzimidazol-1-yl)-N-(4-methoxyphenyl)-1,3,5-triazine-2,4-diamine], the EC50 was 1 to 10 nM.

For the compound `CCc1nc2c(F)cccc2n1-c1nc(N)nc(Nc2ccc(C)cc2)n1` [Cpd 213, 6-(2-ethyl-4-fluoro-1H-benzimidazol-1-yl)-N-(4-methylphenyl)-1,3,5-triazine-2,4-diamine], the EC50 lay within 1 to 10 nM.

In the case of `CCc1nc2c(F)cccc2n1-c1nc(N)nc(Nc2ccc(Cl)cc2)n1` [Cpd 214, N-(4-chlorophenyl)-6-(2-ethyl-4-fluoro-1H-benzimidazol-1-yl)-1,3,5-triazine-2,4-diamine], the EC50 was in the range of 10 to 100 nM.

`CCc1nc2c(F)cccc2n1-c1nc(N)nc(Nc2ccc(Cl)c(F)c2)n1` [Cpd 215, N-(4-chloro-3-fluorophenyl)-6-(2-ethyl-4-fluoro-1H-benzimidazol-1-yl)-1,3,5-triazine-2,4-diamine] had an EC50 of 10 to 100 nM.

Compound `CCc1nc2c(F)cccc2n1-c1nc(N)nc(Nc2ccc(Br)cc2)n1` [Cpd 216, N-(4-bromophenyl)-6-(2-ethyl-4-fluoro-1H-benzimidazol-1-yl)-1,3,5-triazine-2,4-diamine] gave an EC50 of 1 to 10 nM.

As to `Cc1ccc(Nc2nncc(-n3c(C)nc4ccccc43)n2)cc1` [Cpd 217, 5-(2-methyl-1H-benzimidazol-1-yl)-N-(4-methylphenyl)-1,2,4-triazin-3-amine], the EC50 lay in the range of 1 to 10 nM.

For `CCc1nc2ccccc2n1-c1cnnc(Nc2ccc(C)cc2)n1` [Cpd 218, 5-(2-ethyl-1H-benzimidazol-1-yl)-N-(4-methylphenyl)-1,2,4-triazin-3-amine], the 50% effective concentration (EC50) lay in the range of 1 to 10 nM.

`Cc1nc2c(F)cccc2n1-c1nc(N)nc(Nc2ccc(Br)cc2)n1` [Cpd 219, N-(4-bromophenyl)-6-(4-fluoro-2-methyl-1H-benzimidazol-1-yl)-1,3,5-triazine-2,4-diamine] registered an EC50 of 10 to 100 nM.

Compound `Nc1nc(Nc2ccc(Br)cc2)nc(-n2c(C3CC3)nc3c(F)cccc32)n1` [Cpd 220, N-(4-bromophenyl)-6-(2-cyclopropyl-4-fluoro-1H-benzimidazol-1-yl)-1,3,5-triazine-2,4-diamine] came in with an EC50 of 10 to 100 nM.

As for `CCc1nc2cc(F)ccc2n1-c1nc(N)nc(Nc2ccc(Br)cc2)n1` [Cpd 221, N-(4-bromophenyl)-6-(2-ethyl-5-fluoro-1H-benzimidazol-1-yl)-1,3,5-triazine-2,4-diamine], the EC50 fell in the range of 10 to 100 nM.

Compound `Nc1nc(Nc2ccc(Br)cc2)nc(-n2c(C3CC3)nc3cc(F)ccc32)n1` [Cpd 222, N-(4-bromophenyl)-6-(2-cyclopropyl-5-fluoro-1H-benzimidazol-1-yl)-1,3,5-triazine-2,4-diamine] returned an EC50 of 10 to 100 nM.

As for `CCc1nc2ccc(F)cc2n1-c1nc(N)nc(Nc2ccc(Br)cc2)n1` [Cpd 223, N-(4-bromophenyl)-6-(2-ethyl-6-fluoro-1H-benzimidazol-1-yl)-1,3,5-triazine-2,4-diamine], the EC50 was in the range of 10 to 100 nM.

As for `Nc1nc(Nc2ccc(Br)cc2)nc(-n2c(C3CC3)nc3ccccc32)n1` [Cpd 224, N-(4-bromophenyl)-6-(2-cyclopropyl-1H-benzimidazol-1-yl)-1,3,5-triazine-2,4-diamine], the EC50 lay within 1 to 10 nM.

`Nc1nc(Nc2ccc(OC(F)(F)F)cc2)nc(-n2c(C3CC3)nc3ccccc32)n1` [Cpd 225, 6-(2-cyclopropyl-1H-benzimidazol-1-yl)-N-[4-(trifluoromethoxy)phenyl]-1,3,5-triazine-2,4-diamine]: the EC50 lay within 100 to 3000 nM.

Compound `CSc1ccc(Nc2nc(N)nc(-n3c(C)nc4ccc(F)cc43)n2)cc1` [Cpd 226, 6-(6-fluoro-2-methyl-1H-benzimidazol-1-yl)-N-[4-(methylsulfanyl)phenyl]-1,3,5-triazine-2,4-diamine] displayed an EC50 of 10 to 100 nM.

On to `CCc1nc2c(F)cccc2n1-c1nc(N)nc(Nc2ccc(SC)cc2)n1` [Cpd 227, 6-(2-ethyl-4-fluoro-1H-benzimidazol-1-yl)-N-[4-(methylsulfanyl)phenyl]-1,3,5-triazine-2,4-diamine], for which the EC50 fell in the range of 1 to 10 nM.
